Structures are written as SMILES. A value given as a limit tells only on which side of the number the result lay.

In general, IC50 refers to the point on the concentration scale where inhibition reaches its midpoint.

This assay has as its target T1, human CRHR2-alpha (Homo sapiens, UniProt Q13324).
T1 sequence (Q13324 1-411): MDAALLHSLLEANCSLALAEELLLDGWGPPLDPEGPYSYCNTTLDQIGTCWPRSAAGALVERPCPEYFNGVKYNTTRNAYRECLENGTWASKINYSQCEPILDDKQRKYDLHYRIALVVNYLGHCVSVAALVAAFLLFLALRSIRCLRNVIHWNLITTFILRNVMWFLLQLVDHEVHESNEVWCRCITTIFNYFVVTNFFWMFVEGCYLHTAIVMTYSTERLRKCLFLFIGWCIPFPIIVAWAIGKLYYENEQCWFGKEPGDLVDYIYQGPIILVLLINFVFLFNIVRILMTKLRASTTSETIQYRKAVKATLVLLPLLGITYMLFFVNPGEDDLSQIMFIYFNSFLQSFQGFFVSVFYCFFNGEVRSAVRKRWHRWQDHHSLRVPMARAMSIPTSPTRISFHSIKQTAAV
As to the kind of experiment: cAMP functional assay for human CRHR2 (LANCE Ultra cAMP, TR-FRET). The settings on record: CHO-K1 cells expressing human CRHR2-alpha, agonist human urocortin2 at EC80, cAMP; read-out: IC50 against CRHR2. The class given is cell-based. In outline: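 CHO-K1 cells stably expressing each receptor, serum-starved and cryopreserved, were preincubated with compound 30 min at 25° C in HBSS buffer with 0.5 mM IBMX, pH 7.4, then stimulated 30 min with EC80 agonist (urocortin2 for CRHR2, CRF for CRHR1). cAMP read by TR-FRET; IC50 from percent-inhibition curves.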
For orientation: In TR-FRET formats the signal depends on donor and acceptor labels being close together.
`C[C@H](O)COc1ccc(-n2c(=O)n(C[C@H]3CC[C@H](NC(=O)c4cc(Cl)cnc4C(F)F)CC3)c3ccccc32)cn1` [Example 440, 5-chloro-2-(difluoromethyl)-N-((1S,4r)-4-((3-(6-((S)-2-hydroxypropoxy)pyridin-3-yl)-2-oxo-2,3-dihydro-1H-benzo[d]imidazol-1-yl)methyl)cyclohexyl)nicotinamide]: the IC50 was < 300 nM.

`Cc1ncc(Cl)cc1C(=O)N[C@H]1CC[C@H](Cn2c(=O)n(-c3ccc(NCc4cnn(C)c4)nc3)c3ccccc32)CC1` [Example 441, 5-chloro-2-methyl-N-((1r,4r)-4-((3-(6-(((1-methyl-1H-pyrazol-4-yl)methyl)amino)pyridin-3-yl)-2-oxo-2,3-dihydro-1H-benzo[d]imidazol-1-yl)methyl)cyclohexyl)nicotinamide]: the IC50 was < 300 nM.

As for `Cc1ncc(Cl)cc1C(=O)N[C@H]1CC[C@H](Cn2c(=O)n(-c3cnc4cccnc4c3)c3ccccc32)CC1` [Example 442, N-((1r,4r)-4-((3-(1,5-naph-thyridin-3-yl)-2-oxo-2,3-dihydro-1H-benzo[d]imidazol-1-yl)methyl)cyclo-hexyl)-5-chloro-2-methyl-nicotinamide], the concentration for half-maximal inhibition (IC50) is < 300 nM.

Consider `Cc1ncc(Cl)cc1C(=O)N[C@H]1CC[C@H](Cn2c(=O)n(-c3ccc4cncnc4c3)c3ccccc32)CC1` [Example 443, 5-chloro-2-methyl-N-((1r,4r)-4-((2-oxo-3-(quinazolin-7-yl)-2,3-dihydro-1H-benzo[d]imidazol-1-yl)methyl)cyclo-hexyl)nicotinamide], for which the concentration for half-maximal inhibition (IC50) was < 300 nM.

In the case of `Cc1ncc(Cl)cc1C(=O)N[C@H]1CC[C@H](Cn2c(=O)n(-c3cccc(N4CCOCC4)c3)c3ccccc32)CC1` [Example 444, 5-chloro-2-methyl-N-((1r,4r)-4-((3-(3-morpholinophenyl)-2-oxo-2,3-dihydro-1H-benzo [d]imidazol-1-yl)methyl)cyclo-hexyl)nicotinamide], the IC50 is < 300 nM.

Consider `Cc1ncc(Cl)cc1C(=O)N[C@H]1CC[C@H](Cn2c(=O)n(-c3ccc(-c4ccon4)cc3)c3ccccc32)CC1` [Example 445, 5-chloro-N-((1r,4r)-4-((3-(4-(isoxazol-3-yl)phenyl)-2-oxo-2,3-dihydro-1H-benzo[d]imidazol-1-yl)methyl)cyclo-hexyl)-2-methylnicotinamide], for which the IC50 was < 300 nM.

As for `Cc1ncc(Cl)cc1C(=O)N[C@H]1CC[C@H](Cn2c(=O)n(-c3ccc(-c4ccnn4C)cc3)c3ccccc32)CC1` [Example 446, 5-chloro-2-methyl-N-((1r,4r)-4-((3-(4-(1-methyl-1H-pyrazol-5-yl)phenyl)-2-oxo-2,3-dihydro-1H-benzo[d]imidazol-1-yl)methyl)cyclo-hexyl)nicotinamide], the half-inhibitory concentration (IC50) is < 300 nM.

With `Cc1ncc(Cl)cc1C(=O)N[C@H]1CC[C@H](Cn2c(=O)n(-c3ccc(-c4ccn(C)n4)cc3)c3ccccc32)CC1` [Example 447, 5-chloro-2-methyl-N-((1r,4r)-4-((3-(4-(1-methyl-1H-pyrazol-3-yl)phenyl)-2-oxo-2,3-dihydro-1H-benzo[d]imidazol-1-yl)methyl)cyclo-hexyl)nicotinamide], the IC50 was < 300 nM.

For `Cc1ncc(Cl)cc1C(=O)N[C@H]1CC[C@H](Cn2c(=O)n(Cc3ccccc3)c3ncccc32)CC1` [Example 448, N-((1r,4r)-4-((3-benzyl-2-oxo-2,3-dihydro-1H-imidazo [4,5-b]pyridin-1-yl)methyl)cyclohexyl)-5-chloro-2-methylnicotinamide], the half-inhibitory concentration (IC50) is < 300 nM.

Take `O=C(N[C@H]1CC[C@H](Cn2c(=O)n(-c3ccccc3F)c3ncccc32)CC1)c1cc(Cl)cnc1C(F)F` [Example 449, 5-chloro-2-(difluoromethyl)-N-((1r,4r)-4-((3-(2-fluoro-phenyl)-2-oxo-2,3-dihydro-1H-imidazo[4,5-b]pyridin-1-yl)methyl)cyclohexyl) nicotinamide]: the half-inhibitory concentration (IC50) is < 300 nM.

As for `Cc1ncc(Cl)cc1C(=O)N[C@H]1CC[C@H](Cn2c(=O)n(-c3ccc(-c4cnco4)cc3)c3ccccc32)CC1` [Example 450, 5-chloro-2-methyl-N-((1r,4r)-4-((3-(4-(oxazol-5-yl)phenyl)-2-oxo-2,3-dihydro-1H-benzo [d]imidazol-1-yl)methyl)cyclo-hexyl)nicotinamide], the half-inhibitory concentration (IC50) was < 300 nM.

For `Cc1ncc(Cl)cc1C(=O)N[C@H]1CC[C@H](Cn2c(=O)n(-c3ccc(-c4ncco4)cc3)c3ccccc32)CC1` [Example 451, 5-chloro-2-methyl-N-((1r,4r)-4-((3-(4-(oxazol-2-yl)phenyl)-2-oxo-2,3-dihydro-1H-benzo [d]imidazol-1-yl)methyl)cyclo-hexyl)nicotinamide], the 50% inhibitory concentration (IC50) was < 300 nM.

Consider `Cc1ccc(-n2c(=O)n(C[C@H]3CC[C@H](NC(=O)c4cc(Cl)cnc4C(F)F)CC3)c3cccnc32)c(Cl)c1` [Example 452, 5-chloro-N-((1r,4r)-4-((3-(2-chloro-4-methylphenyl)-2-oxo-2,3-dihydro-1H-imidazo[4,5-b]pyridin-1-yl)methyl)cyclo-hexyl)-2-(difluoromethyl) nicotinamide], for which the IC50 is < 300 nM.

With `COc1ccc(Cl)c(-n2c(=O)n(C[C@H]3CC[C@H](NC(=O)c4cc(Cl)cnc4C(F)F)CC3)c3cccnc32)c1` [Example 453, 5-chloro-N-((1r,4r)-4-((3-(2-chloro-5-methoxyphenyl)-2-oxo-2,3-dihydro-1H-imidazo [4,5-b]pyridin-1-yl)methyl)cyclohexyl)-2-(difluoromethyl) nicotinamide], the half-maximal inhibitory concentration (IC50) was < 300 nM.

As to `O=C(N[C@H]1CC[C@H](Cn2c(=O)n(-c3cc(F)ccc3Cl)c3ncccc32)CC1)c1cc(Cl)cnc1C(F)F` [Example 454, 5-chloro-N-((1r,4r)-4-((3-(2-chloro-5-fluorophenyl)-2-oxo-2,3-dihydro-1H-imidazo[4,5-b]pyridin-1-yl)methyl)cyclo-hexyl)-2-(difluoromethyl) nicotinamide], the 50% inhibitory concentration (IC50) was < 300 nM.

As for `O=C(N[C@H]1CC[C@H](Cn2c(=O)n(-c3cnc4[nH]ccc4c3)c3ccccc32)CC1)c1cc(Cl)cnc1C(F)F` [Example 455, 5-chloro-2-(difluoromethyl)-N-((1r,4r)-4-((2-oxo-3-(1H-pyrrolo[2,3-b]pyridin-5-yl)-2,3-dihydro-1H-benzo[d]imidazol-1-yl)methyl)cyclo-hexyl)nicotinamide], the concentration for half-maximal inhibition (IC50) was < 300 nM.

Turning to `Cc1c[nH]c2ncc(-n3c(=O)n(C[C@H]4CC[C@H](NC(=O)c5cc(Cl)cnc5C(F)F)CC4)c4ccccc43)cc12` [Example 456, 5-chloro-2-(difluoromethyl)-N-((1r,4r)-4-((3-(3-methyl-1H-pyrrolo[2,3-b]pyridin-5-yl)-2-oxo-2,3-dihydro-1H-benzo[d]imidazol-1-yl)methyl)cyclohexyl)nicotinamide], the IC50 is < 300 nM.

For the compound `O=C(N[C@H]1CC[C@H](Cn2c(=O)n(CCOc3ccccc3)c3ncccc32)CC1)c1cc(Cl)cnc1C(F)F` [Example 458, 5-chloro-2-(difluoromethyl)-N-((1r,4r)-4-((2-oxo-3-(2-phenoxyethyl)-2,3-dihydro-1H-imidazo[4,5-b]pyridin-1-yl)methyl)cyclohexyl) nicotinamide], the IC50 is < 300 nM.

Turning to `O=C(N[C@H]1CC[C@H](Cn2c(=O)n(-c3ccc(Cl)cc3Cl)c3ncccc32)CC1)c1cc(Cl)cnc1C(F)F` [Example 459, 5-chloro-N-((1r,4r)-4-((3-(2,4-dichlorophenyl)-2-oxo-2,3-dihydro-1H-imidazo[4,5-b]pyridin-1-yl)methyl)cyclo-hexyl)-2-(difluoromethyl) nicotinamide], the IC50 was < 300 nM.

On to `Cc1ncc(Cl)cc1C(=O)N[C@H]1CC[C@H](Cn2c(=O)n(-c3ccc(NC(C)C)nc3)c3ccccc32)CC1` [Example 460, 5-chloro-N-((1r,4r)-4-((3-(6-(isopropylamino)pyridin-3-yl)-2-oxo-2,3-dihydro-1H-benzo[d]imidazol-1-yl)methyl)cyclohexyl)-2-methylnicotinamide], for which the IC50 is < 300 nM.

Turning to `O=C(N[C@H]1CC[C@H](Cn2c(=O)n(-c3ccc(N4CC[C@@H](O)C4)nc3)c3ccccc32)CC1)c1cc(Cl)cnc1C(F)F` [Example 461, 5-chloro-2-(difluoromethyl)-N-((1R,4r)-4-((3-(6-((R)-3-hydroxypyrrolidin-1-yl)pyridin-3-yl)-2-oxo-2,3-dihydro-1H-benzo[d]imidazol-1-yl)methyl)cyclohexyl) nicotinamide], the half-inhibitory concentration (IC50) is < 300 nM.

`CNc1ncc(-n2c(=O)n(C[C@H]3CC[C@H](NC(=O)c4cc(Cl)cnc4C(F)F)CC3)c3ccccc32)cc1C` [Example 462, 5-chloro-2-(difluoromethyl)-N-((1r,4r)-4-((3-(5-methyl-6-(methylamino)pyridin-3-yl)-2-oxo-2,3-dihydro-1H-benzo [d]imidazol-1-yl)methyl)cyclo-hexyl)nicotinamide]: the 50% inhibitory concentration (IC50) was < 300 nM.

On to `O=C(N[C@H]1CC[C@H](Cn2c(=O)n(-c3ccc(NCC(F)(F)F)nc3)c3ccccc32)CC1)c1cc(Cl)cnc1C(F)F` [Example 463, 5-chloro-2-(difluoromethyl)-N-((1r,4r)-4-((2-oxo-3-(6-((2,2,2-trifluoroethyl)amino)pyridin-3-yl)-2,3-dihydro-1H-benzo[d]imidazol-1-yl)methyl)cyclohexyl)nicotinamide], for which the IC50 is < 300 nM.

Source of the values: patent US11802120B2, “Fused cyclic urea derivatives as CRHR2 antagonist” (RaQualia Pharma Inc., priority 2018, dated 2023).
